# Experiments:
# [1] = biological target: T1, D4R (Homo sapiens, UniProt P21917); assay: D4 β-arrestin recruitment assay (DiscoverX PathHunter, CHO-K1 cells); type: cell-based; parameters: inferred from the same PathHunter system described for D1R and D5R; host or cells: CHO-K1; details: for D4 Beta-Arrestin: DA + 50 μM PAM, Fold Change EC50: fold change of dopamine EC50, 50 μM compound; for Dopamine D4-β-arrestin Assay: DA + 50 μM PAM, Fold Change EC50: Table 7, 50 μM compound; for DA + 50 μM PAM, Fold Change EC50: fold change of DA EC50 with 50 μM PAM, Dopamine D4-β-arrestin Assay
# T1 sequence (P21917 1-419): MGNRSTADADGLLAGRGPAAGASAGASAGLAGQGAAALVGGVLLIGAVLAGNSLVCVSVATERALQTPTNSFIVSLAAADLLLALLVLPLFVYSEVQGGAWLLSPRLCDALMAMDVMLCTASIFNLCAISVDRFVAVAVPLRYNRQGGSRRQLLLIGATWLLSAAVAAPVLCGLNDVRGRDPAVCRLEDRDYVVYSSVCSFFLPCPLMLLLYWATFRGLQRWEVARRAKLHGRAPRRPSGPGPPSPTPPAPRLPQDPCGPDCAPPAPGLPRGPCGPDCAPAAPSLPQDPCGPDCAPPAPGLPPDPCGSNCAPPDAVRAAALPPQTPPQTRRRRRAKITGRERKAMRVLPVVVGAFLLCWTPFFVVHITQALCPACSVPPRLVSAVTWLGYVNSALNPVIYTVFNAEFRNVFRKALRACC
# Description: (§1) β-arrestin Recruitment Assay. Agonist-mediated recruitment of β-arrestin-2 to all five DARs was determined using the DiscoveRx PathHunter complementation assay (DiscoverX Inc, Fremont, Calif.), as previously described (Free, et. al., 2014; Conroy, et. al., 2015). […] Following 18-24 h of incubation, the cells were treated with the indicated concentrations of compound in PBS buffer containing 0.2 mM sodium metabisulfite, and incubated at 37° C. for 90 min. DiscoverX reagent was added to cells according to the manufacturer's protocol, followed by a 60 min incubation in the dark at room temperature. Luminescence was measured on a Hamamatsu FDSS μ-Cell reader (Hamamatsu, Bridgewater, N.J.) and data were collected using the FDSS software.
# [2] = biological target: T2, D5 (Homo sapiens, UniProt P21918); assay: D5R β-arrestin recruitment assay (DiscoverX PathHunter, CHO cells); type: cell-based; parameters: host or cells: CHO-K1; details: for D5 Beta-Arrestin: DA + 50 μM PAM, Fold Change EC50: fold change of dopamine EC50, 50 μM compound; for Dopamine D5-β-arrestin Assay: DA + 50 μM PAM, Fold Change EC50: Table 6
# Description: as §1, with “Assay.” for “Assay. Agonist-mediated recruitment of β-arrestin-2 to all five DARs was determined using the DiscoveRx PathHunter complementation assay (DiscoverX Inc, Fremont, Calif.), as previously described (Free, et. al., 2014; Conroy, et. al., 2015).”
# Each PAM was also examined in the absence of DA as an agonist, as indicated.
# [3] = biological target: human D1R (Homo sapiens, UniProt P21728); assay: D1R β-arrestin recruitment assay (DiscoverX PathHunter, CHO-K1 cells); details: for Dopamine D1-β-arrestin Assay: DA + 50 μM PAM, Fold Change EC50: Table 5, 50 μM compound
# Description: β-arrestin Recruitment Assay. […] Following 18-24 h of incubation, the cells were treated with the indicated concentrations of compound in PBS buffer containing 0.2 mM sodium metabisulfite, and incubated at 37° C. for 90 min. DiscoverX reagent was added to cells according to the manufacturer's protocol, followed by a 60 min incubation in the dark at room temperature. Luminescence was measured on a Hamamatsu FDSS μ-Cell reader (Hamamatsu, Bridgewater, N.J.) and data were collected using the FDSS software.
# The DiscoverX PathHunter β-Arrestin Assay was used to measure β-arrestin reuitment to the D1R following the manufacturer's instructions.
# [4] = biological target: T2, D5; assay: D5 cAMP assay; details: fold change of dopamine EC50, 50 μM compound
# Description: cAMP Accumulation Assay. Assays were performed on D1R-HEK293 (Codex Biosolutions, Gaithersburg, Md.) cells stably expressing the human D1R. HEK293 cell lines were maintained in Dulbecco's modified Eagles medium, supplemented with 10% fetal bovine serum, 100 U/ml penicillin, 100 μg/ml streptomycin, 1 mM sodium pyruvate, and 250 μg/ml G418 and incubated at 37° C., 5% CO2, and 90% humidity. […] After 18-24 h incubation at 37° C., 5% CO2, and 90% humidity, the media was removed and replaced with 5 μL/well PBS. […] Briefly, antibody and working solution was added to each well according to the manufacturer's protocol, and incubated in the dark at room temperature for 60 min. Following incubation, enzyme acceptor reagent was added to the plates and luminescence (RLU) was measured (FDSS μCell, Hamamatsu Photonics K. K., Bridgewater, N.J.) following a 3 h incubation in the dark at room temperature.
# Sequence of human D1R (P21728 whole entry): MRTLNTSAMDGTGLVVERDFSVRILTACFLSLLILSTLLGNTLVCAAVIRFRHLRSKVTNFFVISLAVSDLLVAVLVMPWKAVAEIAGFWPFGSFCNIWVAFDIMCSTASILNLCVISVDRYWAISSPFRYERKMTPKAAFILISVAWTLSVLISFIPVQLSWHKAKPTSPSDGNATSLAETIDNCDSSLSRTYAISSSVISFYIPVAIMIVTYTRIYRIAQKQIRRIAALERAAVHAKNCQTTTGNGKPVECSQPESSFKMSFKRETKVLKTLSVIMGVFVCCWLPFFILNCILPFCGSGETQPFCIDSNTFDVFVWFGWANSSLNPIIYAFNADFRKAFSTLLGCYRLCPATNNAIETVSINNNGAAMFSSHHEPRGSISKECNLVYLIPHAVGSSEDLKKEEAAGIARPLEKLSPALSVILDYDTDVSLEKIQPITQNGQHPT
# T2 sequence (P21918 whole entry): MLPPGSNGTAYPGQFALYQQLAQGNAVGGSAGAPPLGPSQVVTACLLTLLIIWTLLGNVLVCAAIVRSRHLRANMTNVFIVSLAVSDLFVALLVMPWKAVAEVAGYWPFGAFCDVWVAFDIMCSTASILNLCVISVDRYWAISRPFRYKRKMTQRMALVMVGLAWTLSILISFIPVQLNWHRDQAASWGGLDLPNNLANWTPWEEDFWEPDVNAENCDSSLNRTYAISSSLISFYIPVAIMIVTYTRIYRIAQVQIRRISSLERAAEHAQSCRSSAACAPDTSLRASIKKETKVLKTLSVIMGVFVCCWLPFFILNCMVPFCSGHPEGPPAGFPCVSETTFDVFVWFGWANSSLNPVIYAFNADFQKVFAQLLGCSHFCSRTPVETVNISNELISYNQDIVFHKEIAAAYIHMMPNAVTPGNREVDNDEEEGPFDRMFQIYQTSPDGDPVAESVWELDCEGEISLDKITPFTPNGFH
"D4 Beta-Arrestin: DA + 50 μM PAM, Fold Change EC50 [1]","D5 Beta-Arrestin: DA + 50 μM PAM, Fold Change EC50 [2]","Dopamine D1-β-arrestin Assay: DA + 50 μM PAM, Fold Change EC50 [3]","Dopamine D4-β-arrestin Assay: DA + 50 μM PAM, Fold Change EC50 [1]","Dopamine D5-β-arrestin Assay: DA + 50 μM PAM, Fold Change EC50 ([2]; 50 μM compound)",Compound,further results
1.90,0.91,–,–,–,Cn1c2ccccc2c(=O)c2c(=O)n(-c3cccc(Cl)c3)c(C3CCCC3)nc21 [Compound 14],–
–,–,1.33,0.8,35.49,"Cn1c2ccccc2c(=O)c2c(=O)n(-c3ccccc3)c(-c3ccc(C(C)(C)C)cc3)nc21 [R1=Ph, R2=4-t-BuPh, R3=H, X=NMe]",–
1.20,1.53,–,–,–,COc1ccc(-n2c(CC(C)C)nc3c(c(=O)c4ccccc4n3C)c2=O)cc1Cl [Compound 8],–
1.67,1.40,–,–,–,Cn1c2ccccc2c(=O)c2c(=O)n(-c3cccc(Cl)c3)c(CC3CCCCC3)nc21 [Compound 22],"D5 cAMP: DA + 50 μM PAM, Fold Change EC50 [4]: 0.73"
1.78,1.29,–,–,–,COc1ccc(-n2c(CC3CCCCC3)nc3c(c(=O)c4ccccc4n3C)c2=O)cc1Cl [Compound 19],"D5 cAMP: DA + 50 μM PAM, Fold Change EC50 [4]: 1.04"
–,–,14.1,0.95,3.81,"CCCc1nc2c(c(=O)c3ccccc3n2C)c(=O)n1-c1cc(C)cc(C)c1 [R1=3,5-diMePh, R2=n-Propyl, R3=H, X=NMe]",–
–,–,2.06,1.7,17.2,"CC(C)Cn1c(-c2ccco2)nc2c(c(=O)c3ccccc3n2C)c1=O [R1=i-Bu, R2=2-furyl, R3=H, X=NMe]",–
–,–,–,–,–,CC1CCc2c(sc(NC(=O)c3ccc(O)cc3)c2C(N)=O)C1 (centres unmarked) [R4=NH2; R5=NHCO-4-HOPh; R6=Me],"DA + 50 μM PAM, Fold Change EC50 ([3]; fold change of DA EC50 with 50 μM PAM, Dopamine D1-β-arrestin Assay): 1.76; DA + 50 μM PAM, Fold Change EC50 [1]: 1.2; DA + 50 μM PAM, Fold Change EC50 ([2]; fold change of DA EC50 with 50 μM PAM, Dopamine D5-β-arrestin Assay): 0.87"
–,–,1.32,1.24,6.74,"Cn1c2ccccc2c(=O)c2c(=O)n(Cc3ccccc3)c(-c3ccc(F)cc3)nc21 [R1=Bn, R2=4-FPh, R3=H, X=NMe]",–
0.77,2.25,–,–,–,Cn1c2ccccc2c(=O)c2c(=O)n(-c3ccc(Cl)cc3)c(CC3CCCCC3)nc21 [Compound 25],–
1.58,2.93,–,–,–,COc1ccc(-n2c(CC(C)C)nc3c(c(=O)c4ccccc4n3C)c2=O)cc1 [Compound 9],–
1.40,1.15,–,–,–,Cc1ccc(-n2c(CC3CCCCC3)nc3c(c(=O)c4ccccc4n3C)c2=O)cc1 [Compound 26],–
–,–,1.69,1.76,2.44,"CC(C)c1nc2c(c(=O)c3ccccc3n2C)c(=O)n1-c1ccc(F)cc1 [R1=4-FPh, R2=i-Propyl, R3=H, X=NMe]",–
–,–,0.85,0.99,4.94,"COc1ccc2c(=O)c3c(=O)n(-c4ccccc4)c(-c4ccc(C)cc4)nc3oc2c1 [R1=Ph, R2=4-MePh, R3=MeO, X=O]",–
0.57,0.80,–,–,–,CC(C)Cc1nc2c(c(=O)c3ccccc3n2C)c(=O)n1-c1cccc(Cl)c1 [Compound 7],PAM activity at the D5 receptor ([2]; 50 μM compound): none of these analogs have PAM activity; fold change of dopamine EC50 for β-arrestin recruitment to D5R ([2]; 50 μM compound): 0.8 fold
–,–,–,–,–,Cc1ccccc1NC(=O)c1c(NC(=O)c2ccncc2)sc2c1CCC(C)C2 (centres unmarked) [R4=NH-2-MePH; R5=NHCO-4-pyridyl; R6=Me],"DA + 50 μM PAM, Fold Change EC50 [1]: 1.09"
0.64,2.64,–,–,–,Cc1ccc(-n2c(C3CCCCC3)nc3c(c(=O)c4ccccc4n3C)c2=O)cc1 [Compound 2],–

# Source: patent US20210040074A1 (The United States of America,as represented by the …, priority 2018, published 2021)
